Source: US4622293A, “Iodothyronine immunoassays employing HMS as TBP blocking agent” (Miles Laboratories, Inc., priority 1983, dated 1986)

Legend:
[1] = system: human serum proteins (thyroxine binding proteins, TBP); assay: Dissociation of 125I-thyroxine from human serum proteins by HMS (Sephadex column); conditions: for Percent Dissociated in 5 Minutes / Percent Dissociated in 30 Minutes: pH 6.0, room temperature
Experimental: Radioactive iodine-labeled thyroxine (^125 I-thyroxine obtained from New England Nuclear, Boston, MA USA) was equilibrated with 3.5 milliliter (mL) of normal human serum for 48 hours at 4° C. Aliquots of this serum [50 microliters (μL)] were added to 450 μL of 0.1 molar (M) sodium phosphate, pH 6.0, containing various concentrations of HMS to give the final concentrations given in Table 1. After 5 or 30 minutes of incubation at room temperature, a 500 μL aliquot was applied to a Sephadex column from a Seralute® thyroxine assay kit (Miles Laboratories, Inc., Ames Division, Elkhart, IN, USA), which has been equilibrated with 0.1 M sodium phosphate, pH 6.0. The total radioactivity applied to the columns was measured and the undissociated material was washed through the column. The columns were counted to determine the percentage of thyroxine dissociated from the serum proteins.

[2] = Water solubility (statement); assay type: physicochemical
[3] = system: serum proteins; assay: Effect of pH on the dissociation of iodothyronine from serum proteins by HMS; assay type: binding; conditions: for % Dissociated: 1.0 mM HMS in MIX solution
Experimental: Assays were performed in 3 ml polystyrene test tubes in duplicate. A solution (designated "MIX") was prepared containing 27 mL of 0.1 M sodium phosphate, at the stated pH, 73 mL of 21% polyethyleneglycol, 1.0 mM HMS, and 10 micrograms (μg) (40 μL) I-125-thyroxine for each 100 mL. Assay solutions are made up by addition of 50 μL of a serum sample, 0.1 mL of anti(thyroxine) antiserum diluted in 0.1 M sodium phosphate (at the given pH) and 1.0 mL of the MIX solution. Assays are included for maximum binding of label and nonspecific binding.

[4] = biological target: apo(glucose oxidase) (Aspergillus niger, UniProt P13006); assay: Effect of HMS on the activation of apo(glucose oxidase) by an FAD-labeled thyroxine conjugate; assay type: biochemical; conditions: 37° C, pH 6.5, five minute incubation, read-out: % Activity (absorbance at 520 nm as percentage of that with no HMS)
Sequence of apo(glucose oxidase) (P13006 17-605): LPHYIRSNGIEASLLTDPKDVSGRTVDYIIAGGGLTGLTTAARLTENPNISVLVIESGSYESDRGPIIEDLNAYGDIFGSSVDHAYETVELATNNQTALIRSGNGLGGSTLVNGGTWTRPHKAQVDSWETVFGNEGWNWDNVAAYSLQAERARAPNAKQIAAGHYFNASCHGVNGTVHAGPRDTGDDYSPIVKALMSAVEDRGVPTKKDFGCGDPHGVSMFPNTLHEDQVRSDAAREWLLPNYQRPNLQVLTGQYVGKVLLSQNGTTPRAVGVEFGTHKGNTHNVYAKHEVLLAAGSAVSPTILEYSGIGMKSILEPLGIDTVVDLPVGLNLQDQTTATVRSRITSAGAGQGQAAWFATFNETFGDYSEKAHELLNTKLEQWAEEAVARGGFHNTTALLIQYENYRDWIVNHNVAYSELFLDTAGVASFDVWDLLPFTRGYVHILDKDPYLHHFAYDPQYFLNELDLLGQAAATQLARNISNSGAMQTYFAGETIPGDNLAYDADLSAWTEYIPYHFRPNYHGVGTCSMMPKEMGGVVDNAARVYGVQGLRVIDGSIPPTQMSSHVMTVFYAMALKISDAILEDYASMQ
Experimental: The activation of apoglucose oxidase was set up with different concentrations of HMS and performed at 37° C. Assays containing 50 mM sodium phosphate, pH 6.5, 200 mM glucose, 2.0 mM sodium dichlorohydroxybenzene sulfonate (DHSA), 25 μg/mL peroxidase, various concentrations of HMS and 2.5 nM final concentration of a FAD-thyroxine conjugate (see U.S. Pat. No. 4,213,893) were started by adding apo(glucose oxidase), 4-aminoantipyrine, and anti(glucose oxidase) at final concentrations of 125 nM, 400 μM, and 8 μL/mL respectively. The absorbance at 520 nm was recorded after a five minute incubation. The data are presented in Table 3 as a percentage of the absorbance recorded when no HMS is present.

Compound: COc1cc(O)c(C(=O)c2ccccc2)cc1S(=O)(=O)O [HMS, 2-hydroxy-4-methoxybenzophenone-5-sulfonic acid]
- Percent Dissociated in 5 Minutes ([1]; HMS 1 mM): 65%
- Percent Dissociated in 30 Minutes ([1]; HMS 1 mM): 73%
- Percent Dissociated in 5 Minutes ([1]; HMS 2 mM): 74%
- Percent Dissociated in 30 Minutes ([1]; HMS 2 mM): 84%
- Percent Dissociated in 5 Minutes ([1]; HMS 4 mM): 91%
- Percent Dissociated in 30 Minutes ([1]; HMS 4 mM): 94%
- Percent Dissociated in 5 Minutes ([1]; HMS 6 mM): 93%
- Percent Dissociated in 30 Minutes ([1]; HMS 6 mM): 95%
- Dissociation of TBP-bound iodothyronine ([1]; concentration 4 mM): over 90%
- Dissociation of TBP-bound iodothyronine ([1]; reaction mixture concentration 1 mM, in a few minutes): over 50%
- Water solubility [2]: highly water soluble
- % Dissociated ([3]; pH 6.0): 73%
- % Dissociated ([3]; pH 6.5): 73%
- % Dissociated ([3]; pH 7.0): 69%
- % Dissociated ([3]; pH 7.5): 72%
- Effect of pH on the efficiency of dissociation ([3]; pH range 6.0-7.5): essentially no effect
- activity at 50 µM ([4]; HMS 0.05 mM): 100%
- activity at 100 µM ([4]; HMS 0.10 mM): 100%
- activity at 500 µM ([4]; HMS 0.50 mM): 99%
- activity at 1000 µM ([4]; HMS 1.00 mM): 97%
- activity at 5000 µM ([4]; HMS 5.00 mM): 86%
- activity at 10000 µM ([4]; HMS 10.00 mM): 72%
